Test results reported in PubChem BioAssay (NCI).
Several values for one entry are separate records, joined by “and”; a condition that tells them apart may be missing. Equal values may be shown once.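 Step 1: Grow cells in 96-well plates. Step 2: Expose to compound for 48 hours at 5 concentrations. Step 3: Interpolate endpoints linearly; if unreached, use highest concentration. GI50 marks 50% less growth. Definition used: TGI = concentration required for complete inhibition of growth.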

Experiments:
Experiment in all cases: NCI-60 cell line screen, 48 h
DU-145 prostate = system: DU-145 prostate
HOP-62 NSCLC = system: HOP-62 NSCLC
LOX IMVI melanoma = system: LOX IMVI melanoma
MALME-3M melanoma = system: MALME-3M melanoma
MDA-MB-231 breast = system: MDA-MB-231 breast
NCI-H23 lung = system: NCI-H23 lung
NCI-H460 lung = system: NCI-H460 lung
SK-MEL-28 melanoma = system: SK-MEL-28 melanoma
UO-31 renal = system: UO-31 renal
T-47D breast = system: T-47D breast

SMILES | GI50 (DU-145 prostate) | TGI (DU-145 prostate) | GI50 (HOP-62 NSCLC) | TGI (HOP-62 NSCLC) | GI50 (LOX IMVI melanoma) | TGI (LOX IMVI melanoma) | GI50 (MALME-3M melanoma) | TGI (MALME-3M melanoma) | GI50 (MDA-MB-231 breast) | GI50 (NCI-H23 lung) | TGI (NCI-H23 lung) | GI50 (NCI-H460 lung) | TGI (NCI-H460 lung) | GI50 (SK-MEL-28 melanoma) | TGI (SK-MEL-28 melanoma) | GI50 (UO-31 renal) | TGI (UO-31 renal) | TGI (MDA-MB-231 breast) | GI50 (T-47D breast) | TGI (T-47D breast)
COc1cc(C(=O)c2cnc(-c3c[nH]c4cccc(C)c34)[nH]2)cc(OC)c1OC | 0.00756 µM | > 100 µM | 0.00809 µM | 55.9 µM | 0.0151 µM | > 100 µM | 11.4 µM | > 100 µM | 0.0204 µM | 0.0102 µM | > 100 µM | 0.00618 µM | 35.4 µM | 0.99 µM | 97.4 µM | 0.00965 µM | 14.7 µM | – | – | –
Cc1ccc(NCCNCC(C)(C)O)c2c(=O)c3ccc(Cl)cc3sc12 | 1.67 µM | 3.08 µM | – | – | – | – | 1.59 µM | 3.23 µM | 1.16 µM | 1.53 µM | 3.03 µM | 1.22 µM | 2.6 µM | 1.81 µM | 3.38 µM | 1.03 µM | 2.24 µM | 2.57 µM | – | –
COC(=O)C1=NC(=S)NC(c2ccccc2)C1c1nc2ccccc2o1 (stereo not drawn) | – | – | – | > 50 µM | – | > 50 µM | – | > 50 µM | – | – | > 50 µM | – | > 50 µM | – | – | – | > 50 µM | – | – | –
CCCCCCCCCCCC/C=C\CC[C@@H](O)[C@H](O)CC[C@H](O)[C@@H]1CC[C@@H](CCCCCCCC2=C[C@H](C)OC2=O)O1 | – | – | – | – | 3.55 µM | 4.84 µM and 32.3 µM | – | 31.2 µM | 12.4 µM | 2.19 µM | 29.9 µM | – | 26.6 µM | 20.2 µM | 56.3 µM | 12.4 µM | 9.26 µM and 41.9 µM | 35.3 µM | 2.85 µM | 21.5 µM
CN(C)CCCN1c2ccccc2Sc2ccc(C(F)(F)F)cc21 | 1.79 µM | 3.22 µM and 31.2 µM | – | – | 1.57 µM | 2.98 µM and 28.9 µM and 29.7 µM | 1.56 µM | 3.15 µM and 28.4 µM and 30.1 µM | 1.45 µM | 1.72 µM | 4.12 µM and 31.1 µM and 34.4 µM | 1.6 µM | – | 1.68 µM | – | 1.48 µM | 5.38 µM and 28.3 µM and 28.9 µM | 2.9 µM and 26.5 µM | 1.4 µM | 3.18 µM and 29.1 µM
CC(C)(O)C1COC2=C1C(=O)c1ccccc1C2=O (stereo not drawn) | – | 43.5 µM | – | – | – | 41.9 µM | – | – | – | – | 38.8 µM | – | > 100 µM | – | 46 µM | – | > 100 µM | > 100 µM | – | > 100 µM
Cc1cc(NCCCCCCCNc2cc(C)nc3cc(N)ccc23)c2ccc(N)cc2n1 | – | – | – | > 100 µM | – | 45.4 µM | – | > 100 µM | – | – | > 100 µM | – | > 100 µM | – | > 100 µM | – | > 100 µM | – | – | –
CC(C)c1ccc(O)c(Cc2cc(C(C)C)cc(Cc3cc(C(C)C)ccc3O)c2O)c1 | – | – | – | 3.26 µM | – | – | – | 2.82 µM | – | – | 3.15 µM | – | 3.45 µM | – | 3.2 µM | – | 3.04 µM | – | – | –
O=C1C(Cl)=C(Nc2ccc(S(=O)(=O)c3ccc(NC4=C(Cl)C(=O)c5ccccc5C4=O)cc3)cc2)C(=O)c2ccccc21 | 1.91 µM | 3.69 µM | 2.14 µM | 6.52 µM | 1.49 µM | 3.1 µM | 2.13 µM | 3.88 µM | 1.61 µM | 1.81 µM | 3.63 µM | 2.36 µM | 6.53 µM | 1.8 µM | 3.28 µM | 1.38 µM | 2.85 µM | 3.51 µM | – | –
COC(=O)Cc1cc(=O)n2c3ccccc3n(C)c2c1C#N | – | – | – | > 100 µM | – | > 100 µM | – | > 100 µM | – | – | > 100 µM | – | > 100 µM | – | > 100 µM | – | > 100 µM | – | – | –
Cc1sc(/N=C/C2=C(O)CC(C)(C)CC2=O)nc1-c1ccccc1 | – | > 100 µM | – | > 100 µM | – | > 100 µM | – | – | – | – | > 100 µM | – | > 100 µM | – | > 100 µM | – | > 100 µM | > 100 µM | – | > 100 µM
CC(=O)CCC1(c2ccccc2)OC(=O)C(C#N)=C1c1ccccc1 (stereo not drawn) | – | – | – | > 100 µM | – | > 100 µM | – | > 100 µM | – | – | > 100 µM | – | > 100 µM | – | > 100 µM | – | > 100 µM | – | – | –
O=C(Nc1ccn(C2CC(O)C(COC(c3ccccc3)(c3ccccc3)c3ccccc3)O2)c(=O)n1)c1ccccc1 (stereo not drawn) | – | 17.8 µM | – | 18.8 µM | – | – | – | 5.89 µM | – | – | 3.34 µM | – | 4.31 µM | – | 12.1 µM | – | 18.7 µM | 7.5 µM | – | 16.7 µM
COc1cc(C2CC(c3ccccc3)=NN2C=O)ccc1Oc1ccnc2cc(Cl)ccc12 (stereo not drawn) | > 100 µM | > 100 µM | 12.4 µM | 36.3 µM | > 100 µM | > 100 µM | – | – | 28.5 µM | 4.82 µM | > 100 µM | 18.5 µM | > 100 µM | > 100 µM | > 100 µM | 13.5 µM | > 100 µM | > 100 µM | 10.3 µM | 39.7 µM
Cc1cc(C)c2nc3c(c(C(O)C4CCCCN4)c2c1)CC/C3=C\c1ccc(Cl)cc1 (stereo not drawn) | – | > 100 µM | – | > 100 µM | – | – | – | > 100 µM | – | – | > 100 µM | – | > 100 µM | – | > 100 µM | – | – | > 100 µM | – | > 100 µM
COc1cc2c(c(OC)c1OC)-c1cc(I)c(O)cc1[C@@H](NC(C)=O)CC2 | 0.0398 µM | 0.292 µM | 0.179 µM | > 100 µM | 0.075 µM | > 100 µM | > 100 µM | > 100 µM | 0.0859 µM | 0.046 µM | > 100 µM | 0.0356 µM | 4.99 µM | 0.999 µM | > 100 µM | 0.556 µM | – | – | – | –
COC(=O)CC1(O)C(=O)OCc2c1cc1n(c2=O)Cc2c-1nc1ccccc1c2OC (stereo not drawn) | – | – | – | 0.358 µM | – | > 81.6 µM | – | > 100 µM | – | – | 1.68 µM | – | – | – | > 100 µM | – | 30.5 µM | – | – | –
Cc1ccc(C)c2c1C1CCCCC3(OCCCO3)C21O (stereo not drawn) | – | – | – | > 100 µM | – | > 100 µM | – | > 100 µM | – | – | > 100 µM | – | > 100 µM | – | > 100 µM | – | > 100 µM | – | – | –
